Data: the NIST ThermoML archive (doi:10.1021/je049899g)

Key:
[1] = 298.15 K, 101.33 kPa, Liquid; for viscosity: Capillary tube (Ostwald / Ubbelohde) method; for speed of sound: Sing-around technique in a fixed-path interferometer; for mass density: Vibrating tube method
[2] = xn = mol fraction of the nth substance listed; details: 298.15 K, 101.33 kPa, Liquid; for viscosity: Capillary tube (Ostwald / Ubbelohde) method; for speed of sound: Sing-around technique in a fixed-path interferometer; for mass density: Vibrating tube method

Cc1ccccc1C [1,2-dimethylbenzene]
[1]
Details	mass density [kg/m3]	speed of sound [m/s]	viscosity [mPa·s]
–	875.2	1349	0.769

Cc1ccccc1C [1,2-dimethylbenzene] + CC(=O)CC(C)C
[2], x1 = 1
Details	mass density [kg/m3]	speed of sound [m/s]	viscosity [mPa·s]
–	875.2	1349	0.769

Cc1cccc(C)c1 [1,3-dimethylbenzene]
[1]
Details	mass density [kg/m3]	speed of sound [m/s]	viscosity [mPa·s]
–	859.4	1323	0.587

Cc1cccc(C)c1 [1,3-dimethylbenzene] + CC(=O)CC(C)C
[2], x1 = 1
Details	mass density [kg/m3]	speed of sound [m/s]	viscosity [mPa·s]
–	859.4	1323	0.587

Cc1ccc(C)cc1 [1,4-dimethylbenzene]
[1]
Details	mass density [kg/m3]	speed of sound [m/s]	viscosity [mPa·s]
–	856.1	1316	0.609

Cc1ccc(C)cc1 [1,4-dimethylbenzene] + CC(=O)CC(C)C
[2], x1 = 1
Details	mass density [kg/m3]	speed of sound [m/s]	viscosity [mPa·s]
–	856.1	1316	0.609

CC(=O)CC(C)C [4-methylpentan-2-one]
[1]
Details	mass density [kg/m3]	speed of sound [m/s]	viscosity [mPa·s]
–	796	1215	0.55

CC(=O)CC(C)C [4-methylpentan-2-one] + CC(C)c1ccccc1
[2], x2 = 0
Details	mass density [kg/m3]	speed of sound [m/s]	viscosity [mPa·s]
–	796	1215	0.55

CC(=O)CC(C)C [4-methylpentan-2-one] + Cc1ccc(C)cc1
[2]
Details	mass density [kg/m3]	speed of sound [m/s]	viscosity [mPa·s]
x2 = 0	796	1215	0.55
x2 = 0.059	800.1	1215	0.553
x2 = 0.1454	805.8	1226	0.556
x2 = 0.2887	814.9	1248	0.562
x2 = 0.4325	823.6	1267	0.567
x2 = 0.5735	832.2	1284	0.572
x2 = 0.7166	840.5	1300	0.579
x2 = 0.8587	848.4	1311	0.591
x2 = 0.9419	853	1315	0.6

CC(=O)CC(C)C [4-methylpentan-2-one] + Cc1cccc(C)c1
[2]
Details	mass density [kg/m3]	speed of sound [m/s]	viscosity [mPa·s]
x2 = 0	796	1215	0.55
x2 = 0.0586	801.4	1207	0.554
x2 = 0.1483	809.5	1212	0.558
x2 = 0.2898	821.2	1233	0.564
x2 = 0.4312	830.5	1257	0.567
x2 = 0.5762	837.4	1280	0.569
x2 = 0.7187	842.8	1299	0.572
x2 = 0.8591	849	1314	0.577
x2 = 0.9429	854.4	1321	0.582

CC(=O)CC(C)C [4-methylpentan-2-one] + Cc1ccccc1C
[2]
Details	mass density [kg/m3]	speed of sound [m/s]	viscosity [mPa·s]
x2 = 0	796	1215	0.55
x2 = 0.0598	801.3	1214	0.562
x2 = 0.1483	808.9	1220	0.577
x2 = 0.2932	820.7	1237	0.605
x2 = 0.4368	832.2	1263	0.631
x2 = 0.582	843.4	1294	0.662
x2 = 0.7227	854.5	1318	0.694
x2 = 0.8635	865.1	1336	0.73
x2 = 0.9457	871.2	1345	0.751

CC(C)c1ccccc1 [isopropylbenzene]
[1]
Details	mass density [kg/m3]	speed of sound [m/s]	viscosity [mPa·s]
–	857.1	1338	0.739

CC(C)c1ccccc1 [isopropylbenzene] + CC(=O)CC(C)C
[2]
Details	mass density [kg/m3]	speed of sound [m/s]	viscosity [mPa·s]
x1 = 0.0518	799.4	1227	0.563
x1 = 0.1305	804.6	1231	0.579
x1 = 0.2631	813.4	1234	0.6
x1 = 0.4022	822.6	1246	0.621
x1 = 0.5439	831.5	1262	0.645
x1 = 0.6917	840.3	1282	0.672
x1 = 0.842	848.7	1309	0.704
x1 = 0.9355	853.7	1325	0.725
x1 = 1	857.1	1338	0.739
